Data: US20050096327A1, “Novel norepinephrine reuptake inhibitors for the treatment of central nervous system disorders” (priority 2003, published 2005)
pKi: −log10 of the molar value. Where a name gives a salt, the structure may show the parent alone.

Biological target: T1, human norepinephrine transporter (Homo sapiens, UniProt P23975)
T1 construct: host or cells: HEK-293
Test: hNET receptor binding ([125I]-RTI-55, membranes of transfected HEK-293 cells)
Conditions: 50 pM [125I]-RTI-55, 90 min room temperature; IC50 converted by Cheng-Prusoff
Experimental: Cell pastes of HEK-293 cells transfected with the human norepinephrine transporter were supplied by the Pfizer Ann Arbor Protein Expression and Production group. Pellets were resuspended in 400 to 700 ml of Krebs-HEPES assay buffer (25 mM HEPES, 122 mM NaCl, 3 mM KCl, 1.2 mM MgSO4, 1.3 mM CaCl2, and 11 mM glucose, pH 7.4) with a Polytron homogenizer at setting 7 for 30 sec. Aliquots of membranes (5 mg/ml protein) were stored in liquid nitrogen until used.
The binding assay was set up in Beckman deep-well polypropylene plates with a total volume of 250 μl containing: drug (10^−5M to 10^−12M), cell membranes, and 50 pM [^125I]-RTI-55 (Perkin Elmer, NEX-272; specific activity 2200 Ci/mmol). The reaction was incubated by gentle agitation for 90 min at room temperature and was terminated by filtration through Whatman GF/C filter plates using a Brandel 96-well plate harvester. Scintillation fluid (100 μl) was added to each well, and bound [^125I]-RTI-55 was determined using a Wallac Trilux Beta Plate Counter. Test compounds were run in duplicate, and specific binding was defined as the difference between binding in the presence and absence of 10 μM desipramine.
Excel and GraphPad Prism software were used for data calculation and analysis. IC50 values were converted to Ki values using the Cheng-Prusoff equation. The Ki values for the hNET are reported below in Table 1.

T1 sequence (P23975 whole entry): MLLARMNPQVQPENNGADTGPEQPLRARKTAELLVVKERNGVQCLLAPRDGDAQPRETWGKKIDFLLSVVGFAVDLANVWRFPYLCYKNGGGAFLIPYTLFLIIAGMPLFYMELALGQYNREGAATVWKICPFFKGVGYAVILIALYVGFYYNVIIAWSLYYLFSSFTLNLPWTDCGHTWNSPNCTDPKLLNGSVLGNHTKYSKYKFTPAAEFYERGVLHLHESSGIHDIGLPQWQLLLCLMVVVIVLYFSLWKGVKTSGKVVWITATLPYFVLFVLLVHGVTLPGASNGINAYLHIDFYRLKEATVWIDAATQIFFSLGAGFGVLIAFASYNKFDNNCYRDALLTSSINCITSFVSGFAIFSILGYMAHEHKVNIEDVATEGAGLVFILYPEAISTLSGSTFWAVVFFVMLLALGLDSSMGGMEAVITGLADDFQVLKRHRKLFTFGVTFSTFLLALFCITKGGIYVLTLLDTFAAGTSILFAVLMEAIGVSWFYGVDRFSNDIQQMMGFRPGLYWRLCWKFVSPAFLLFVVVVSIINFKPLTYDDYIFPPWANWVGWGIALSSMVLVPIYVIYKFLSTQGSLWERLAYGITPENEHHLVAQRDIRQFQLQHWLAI

| Compound | pKi |
| --- | --- |
| Fc1ccccc1-c1nc(C2CCCNC2)nc2ccccc12 (centres unmarked) [Example 77, 4-(2-Fluoro-phenyl)-2-piperidin-3-yl-quinazoline] | 7.64 |
| COc1ccccc1-c1nc(C2CCNCC2)nc2ccccc12 [Example 46, 4-(2-Methoxy-phenyl)-2-piperidin-4-yl-quinazoline hydrochloride] | 7.22 |
| Fc1ccccc1-c1nc(C2(c3ccccc3)CCNCC2)nc2ccccc12 [Example 79, 4-(2-Fluoro-phenyl)-2-(4-phenyl-piperidin-4-yl)-quinazoline] | 7.20 |
| Cc1ccccc1-c1nc(C2CCCNC2)nc2ccccc12 (centres unmarked) [Example 78, 2-Piperidin-3-yl-4-o-tolyl-quinazoline] | 7.70 |
| CN1CCC(c2nc(-c3c(F)cccc3F)c3ccccc3n2)CC1 [Example 69, 4-(2,6-Difluoro-phenyl)-2-(1-methyl-piperidin-4-yl)-quinazoline] | 7.42 |
| Clc1ccccc1-c1nc(C2CCNCC2)nc2ccccc12 [Example 45, 4-(2-Chloro-phenyl)-2-piperidin-4-yl-quinazoline hydrochloride] | 8.06 |
| Fc1cccc(F)c1-c1nc(N[C@H]2CCNC2)nc2ccccc12 [Example 58] | 8.10 |
| c1ccc(-c2nc(N3CC4CNCC4C3)nc3ccccc23)cc1 (centres unmarked) [Example 81, 2-(Hexahydro-pyrrolo[3,4-c]pyrrol-2-yl)-4-phenyl-quinazoline] | 7.21 |
| Fc1ccc(F)c(-c2nc(C3CCNCC3)nc3ccccc23)c1F [Example 73, 2-Piperidin-4-yl-4-(2,3,6-trifluoro-phenyl)-quinazoline] | 7.80 |
| Fc1ccc2nc(C3CCNCC3)nc(-c3ccccc3F)c2c1 [Example 64, 6-Fluoro-4-(2-fluoro-phenyl)-2-piperidin-4-yl-quinazoline] | 7.75 |
| Fc1ccccc1-c1nc(N2CC3CCCC(C2)N3)nc2ccccc12 [Example 33, 2-(3,9-Diaza-bicyclo[3.3.1]non-3-yl)-4-(2-fluoro-phenyl-quinazoline hydrochloride] | 7.72 |
| c1ccc(-c2nc(N3CC4CC3CN4)nc3ccccc23)cc1 (centres unmarked) [Example 80, 2-(2,5-Diaza-bicyclo[2.2.1]hept-2-yl)-4-phenyl-quinazoline] | 8.02 |
| CN1CCC(c2nc(-c3c(F)cccc3Cl)c3ccccc3n2)CC1 [Example 74, 4-(2-Chloro-6-fluoro-phenyl)-2-(1-methyl-piperidin-4-yl)-quinazoline] | 7.64 |
| c1ccc(-c2nc(N3CC4CC3CN4)nc3ccccc23)cc1 (centres unmarked) [Example 10, 2-(2,5-Diaza-bicyclo[2.2.1]hept-2-yl)-4-phenyl-quinazoline hydrochloride] | 8.47 |
| Cc1ccccc1-c1nc(C2CCNCC2)nc2ccccc12 [Example 76, 2-Piperidin-4-yl-4-o-tolyl-quinazoline] | 7.35 |
| 4-(2,4-Difluoro-phenyl)-2-piperazin-1-yl)-quinazoline hydrochloride [Example 38] | 8.70 |
| 2-Piperazin-1-yl-4-s-tolyl-quinazoline hydrochloride [Example 53] | 7.98 |
| CN1CCC(c2nc(-c3ccccc3F)c3ccccc3n2)CC1 [Example 43, 4-(2-Fluoro-phenyl)-2-(1-methyl-piperidin-4-yl)-quinazoline] | 7.53 |
| Fc1ccc2c(-c3ccccc3F)nc(C3CCNCC3)nc2c1 [Example 65, 7-Fluoro-4-(2-fluoro-phenyl)-2-piperidin-4-yl-quinazoline] | 8.48 |
| NCCNc1nc(-c2ccccc2)c2ccccc2n1 [Example 13, N^1-(4-Phenyl-quinazolin-2-yl)-ethane-1,2-diamine hydrochloride] | 7.05 |
| c1ccc(-c2nc(N[C@H]3CCNC3)nc3ccccc23)cc1 [Example 17, (S)-(−)-3-(4-Phenyl-quinazolin-2-yl)-aminopyrrolidine hydrochloride] | 7.35 |
| c1ccc(-c2nc(N3C4CCCC3CNC4)nc3ccccc23)cc1 [Example 55, 2-(3,9-Diaza-bicyclo[3.3.1]non-9-yl)-4-phenyl-quinazoline] | 7.96 |
| CN1CCC(c2nc(-c3ccccc3Cl)c3ccccc3n2)CC1 [Example 44, 4-(2-Chloro-phenyl)-2-(1-methyl-piperidin-4-yl)-quinazoline] | 7.20 |

Now from value to compound:

| pKi | Compound |
| --- | --- |
| 8.40 | Fc1ccccc1-c1nc(C2CCNCC2)nc2ccccc12 [Example 41, 4-(2-Fluoro-phenyl)-2-(piperidin-4-yl)-quinazoline hydrochloride] |
| 8.16 | Fc1ccc(-c2nc(N3CCNCC3)nc3ccccc23)c(Cl)c1 [Example 61, 4-(2-Chloro-4-fluoro-phenyl)-2-piperazin-1-yl-quinazoline] |
| 8.26 | Fc1cccc(-c2nc(C3CCNCC3)nc3ccccc23)c1 [Example 66, 4-(3-Fluoro-phenyl)-2-piperidin-4-yl-quinazoline] |
| 7.57 | CN1CCN(c2nc(-c3ccccc3Cl)c3ccccc3n2)CC1 [Example 19, 4-(2-Chloro-phenyl)-2-(4-methyl-piperazin-1-yl)-quinazoline] |
| 8.32 | Clc1ccccc1-c1nc(N2CCNCC2)nc2ccccc12 [Example 22, 4-(2-Chloro-phenyl)-2-piperazin-1-yl-quinazoline hydrochloride] |
| 7.76 | Clc1ccc(-c2nc(N3CCNCC3)nc3ccccc23)cc1 [Example 62, 4-(4-Chloro-phenyl)-2-piperazin-1-yl-quinazoline] |
| 8.23 | Fc1cccc(Cl)c1-c1nc(C2CCNCC2)nc2ccccc12 [Example 75, 4-(2-Chloro-6-fluoro-phenyl)-2-piperidin-4-yl-quinazoline] |
| 7.46 | C[C@@H]1CN(c2nc(-c3ccccc3)c3ccccc3n2)CCN1 [Example 31, (R)-(+)-2-(3-Methyl-piperazin-1-yl)-4-phenyl-quinazoline] |
| 7.88 | c1ccc(-c2nc(C3CCNCC3)nc3ccccc23)cc1 [Example 42, 4-Phenyl-2-piperidin-4-yl-quinazoline hydrochloride] |
| 8.52 | Fc1cccc(-c2nc(C3CCNCC3)nc3ccccc23)c1F [Example 71, 4-(2,3-Difluoro-phenyl)-2-piperidin-4-yl-quinazoline] |
| 8.32 | Fc1cccc(F)c1-c1nc(N2CCNCC2)nc2ccccc12 [Example 29, 4-(2,6-Difluoro-phenyl)-2-piperazin-4-yl-quinazoline hydrochloride] |
| 7.71 | CN[C@H]1CCN(c2nc(-c3ccccc3F)c3ccccc3n2)C1 [Example 35, (S)-(+)-1-[4-(2-Fluoro-phenyl)-quinazolin-2-yl]-pyrrolidin-3-yl}-methyl-amine hydrochloride] |
| 7.75 | Clc1cccc(Cl)c1-c1nc(N2CCNCC2)nc2ccccc12 [Example 63, 4-(2,6-Dichloro-phenyl)-2-piperazin-1-yl-quinazoline] |
| 7.03 | c1ccc(Cc2nc(N3CCNCC3)nc3ccccc23)cc1 [Example 28, 4-Benzyl-2-piperazin-1-yl-quinazoline hydrochloride] |
| 8.39 | Fc1cccc(-c2nc(N3CCNCC3)nc3ccccc23)c1 [Example 60, 4-(3-Fluoro-phenyl)-2-piperazin-1-yl-quinazoline] |
| 8.32 | c1ccc(-c2nc(N3CCNCC3)nc3ccccc23)cc1 [Example 3, 4-Phenyl-2-piperazin-1-yl-quinazoline] |
| 7.27 | CN1CCC(c2nc(-c3cccc(F)c3)c3ccccc3n2)CC1 [Example 67, 4-(3-Fluoro-phenyl)-2-(1-methyl-piperidin-4-yl)-quinazoline] |
| 7.75 | Fc1ccc(-c2nc(C3CCNCC3)nc3ccccc23)c(F)c1 [Example 72, 4-(2,4-Difluoro-phenyl)-2-piperidin-4-yl-quinazoline] |
| 7.53 | COc1ccccc1-c1nc(N2CCNCC2)nc2ccccc12 [Example 23, 4-(2-Methoxy-phenyl)-2-piperazin-1-yl-quinazoline hydrochloride] |
| 8.54 | Fc1cccc(F)c1-c1nc(C2CCNCC2)nc2ccccc12 [Example 70, 4-(2,6-Difluoro-phenyl)-2-piperidin-4-yl-quinazoline] |
| 7.39 | Fc1ccc(-c2nc(C3CCNCC3)nc3ccccc23)cc1 [Example 68, 4-(4-Fluoro-phenyl)-2-piperidin-4-yl-quinazoline] |
